Structures are written as SMILES.

The test relates to cattle liquid manure. Description: Example 5: methane and CO2 emissions from cattle liquid manure during 170 days storage with Compositions 1, 2, 4, 5, 6. To be noted: cf. Example 5. How it is done:
After stirring, the pH value and conductivity in the mixture were measured, and then the wide-neck container was immediately sealed tightly. An opening was drilled in the lid of the wide-neck container, in which a sealed gas storage bag (nominal volume 5.6 liters) was connected and in which the released gas volume was collected. This structure prevented atmospheric oxygen from entering the wide-neck container. This prevented CO2 from the air from falsifying the measurement results. The mixture was stored for exactly 170 days without stirring or agitation at a temperature of 23±1° C. and at an air pressure of 960 to 980 hPa and at 493 m above standard sea level (NHN). At regular intervals, the filled gas storage bag was exchanged, the stored gas volume was determined volumetrically, and the gas composition was analyzed by gas chromatography. […] After stirring, the pH value and conductivity in the mixture were measured, and then the wide-neck container was immediately sealed tightly. […] At regular intervals, the filled gas storage bag was exchanged, the stored gas volume was determined volumetrically, and the gas composition was analyzed by gas chromatography. […] After stirring, the pH value and conductivity in the mixture were measured, and then the wide-neck container was immediately sealed tightly. […]

Turning to `O=C([O-])[O-].[Ca+2]` [calcium carbonate], the “Effect alone on the emission of methane and carbon dioxide” value is recorded as “no impact”.
As for `[Ca+2].[OH-].[OH-]` [calcium hydroxide], the “Effect alone on the emission of methane and carbon dioxide” value is on record as “additional effect”.

(Values after patent US12454494B2, “Process for the reduction of gas emission from farm manure” (Alzchem Trostberg GmbH, priority 2018, dated 2025).)
